Assay results reported in patent US11117883B2 (Ariad Pharmaceuticals, Inc., priority 2016, dated 2021).

Tests used:
Test in all cases: c-Kit assay: Ba/F3 KIT mutant viability (Cell Titer-Glo, 72 hours)
Type in all cases: cell-based
BAF3 FL KIT EX11DEL = biological target: T1, BAF3 FL KIT EX11DEL (Homo sapiens, UniProt P10721, cells depend on it, form not given); details: viability after 72 hours
T1 construct: "BAF3 FL KIT EX11DEL"
Experimental: (§1) KIT cDNAs were synthesized by GenScript and cloned into the pLVX-IRES-Puro vector (Clontech). Viral particles were produced by transfecting pLVX-IRES-puro vectors containing KIT mutant genes into HEK293 cells (Invitrogen) using the Trans-Lentiviral ORF Packaging Kit (Thermo Scientific). 48 hours post-transfection, virus-containing supernatants were harvested and incubated for another 48-72 hours with parental Ba/F3 cells (DSMZ) in the presence of 10 ng/mL […] (R&D Systems). Transduced Ba/F3 cells were then selected by IL-3 withdrawal and puromycin (0.5-1 μg/mL, Invitrogen).
(§2) Cell lines (i.e., EX11DEL, EX11DEL/D816H, EX11DEL/T670I, and EX11DEL/V654A) were plated into 384 well plates using RPMI 1640 supplemented with 10% FBS at densities that produced linear growth and incubated at 37° C. in 5% (v/v) CO2. Cells were treated with eight concentrations of compound over a 4-fold dilution (10 μM to 0.61 nM) and viability was assessed using Cell Titer-Glo assay (Promega) after 72 hours. Data were plotted as percent viability relative to vehicle-treated cells. Dose-responses curves were generated and used to calculate IC50 values.

[1] = biological target: T2, BAF3 FL KIT EX11DEL/D816H (Homo sapiens, UniProt P10721, D816H, cells depend on it, form not given); details: viability after 72 hours
T2 construct: "BAF3 FL KIT EX11DEL/ D816H"
Experimental: as §1, §2

[2] = biological target: T3, BAF3 FL KIT EX11DEL/T6701 (Homo sapiens, UniProt P10721, T670I, cells depend on it, form not given); details: EX11DEL/T6701, viability after 72 hours
T3 construct: "BAF3 FL KIT EX11DEL/ T6701"
Experimental: as §1, §2

[3] = biological target: T4, BAF3 FL KIT EX11DEL/V654A (Homo sapiens, UniProt P10721, V654A, cells depend on it, form not given); details: viability after 72 hours
T4 construct: "BAF3 FL KIT EX11DEL/ V654A"
Experimental: as §1, §2

T1 sequence (P10721 with tags, fused parts or gaps DEL557-558): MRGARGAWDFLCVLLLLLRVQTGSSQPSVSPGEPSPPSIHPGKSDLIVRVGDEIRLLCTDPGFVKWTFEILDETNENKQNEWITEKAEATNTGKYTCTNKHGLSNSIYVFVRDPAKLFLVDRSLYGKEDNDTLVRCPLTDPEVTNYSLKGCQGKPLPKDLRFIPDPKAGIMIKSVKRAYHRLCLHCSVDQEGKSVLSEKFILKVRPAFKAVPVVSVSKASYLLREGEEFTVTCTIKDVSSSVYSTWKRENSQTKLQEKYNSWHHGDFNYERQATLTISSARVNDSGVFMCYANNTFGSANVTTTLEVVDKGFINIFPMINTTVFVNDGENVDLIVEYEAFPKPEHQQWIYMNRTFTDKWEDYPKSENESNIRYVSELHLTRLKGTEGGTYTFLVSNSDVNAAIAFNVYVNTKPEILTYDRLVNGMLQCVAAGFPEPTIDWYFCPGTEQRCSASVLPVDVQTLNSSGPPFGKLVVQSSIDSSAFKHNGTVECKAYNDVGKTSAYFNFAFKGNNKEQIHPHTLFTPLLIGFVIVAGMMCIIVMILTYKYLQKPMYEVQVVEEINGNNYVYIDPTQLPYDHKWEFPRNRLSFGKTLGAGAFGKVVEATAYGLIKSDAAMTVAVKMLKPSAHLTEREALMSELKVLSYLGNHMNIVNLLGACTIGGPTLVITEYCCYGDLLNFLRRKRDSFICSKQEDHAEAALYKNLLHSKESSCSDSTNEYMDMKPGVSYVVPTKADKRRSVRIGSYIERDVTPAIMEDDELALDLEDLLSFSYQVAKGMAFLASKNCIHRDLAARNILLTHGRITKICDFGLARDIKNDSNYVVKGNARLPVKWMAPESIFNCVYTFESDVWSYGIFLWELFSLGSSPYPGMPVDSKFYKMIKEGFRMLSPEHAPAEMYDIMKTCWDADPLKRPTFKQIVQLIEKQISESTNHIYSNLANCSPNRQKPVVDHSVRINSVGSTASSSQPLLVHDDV
T4 sequence (P10721 with tags, fused parts or gaps DEL557-558/V654A, form open): as the sequence (P10721 with tags, fused parts or gaps DEL557-558) above, with V652A counted along it
T3 sequence (P10721 with tags, fused parts or gaps DEL557-558/T670I, form open): as the sequence (P10721 with tags, fused parts or gaps DEL557-558) above, with T668I counted along it
T2 sequence (P10721 with tags, fused parts or gaps DEL557-558/D816H, form open): as the sequence (P10721 with tags, fused parts or gaps DEL557-558) above, with D814H counted along it

CNC(=O)Cn1cnc2cc(C#Cc3cc(C(=O)Nc4cc(C(F)(F)F)ccn4)ccc3C)ccc21 [Compound I-1, 4-Methyl-3-((1-(2-(methylamino)-2-oxoethyl)-1H-benzo[d]imidazol-5-yl)ethynyl)-N-(4-(trifluoromethyl)pyridin-2-yl)benzamide]
GI50 (BAF3 FL KIT EX11DEL): < 10 nM
GI50 [1]: 100 to 10000 nM
GI50 [2]: 100 to 10000 nM
GI50 [3]: 100 to 10000 nM

Cc1ccc(C(=O)Nc2cc(C(F)(F)F)ccn2)cc1C#Cc1ccc2[nH]cnc2c1 [Compound I-2, 3-((1H-benzo[d]imidazol-5-yl)ethynyl)-4-methyl-N-(4-(trifluoromethyl)pyridin-2-yl)benzamide]
GI50 (BAF3 FL KIT EX11DEL): < 10 nM
GI50 [1]: 50 to 100 nM
GI50 [2]: 10 to 50 nM
GI50 [3]: 10 to 50 nM

Cc1ccc(C(=O)Nc2cc(C(F)(F)F)ccn2)cc1C#Cc1ccc2c(c1)ncn2CCN(C)C [Compound I-3, 3-((1-(2-(dimethylamino)ethyl)-1H-benzo[d]imidazol-5-yl)ethynyl)-4-methyl-N-(4-(trifluoromethyl)pyridin-2-yl)benzamide]
GI50 (BAF3 FL KIT EX11DEL): 50 to 100 nM
GI50 [1]: 100 to 10000 nM
GI50 [2]: 100 to 10000 nM
GI50 [3]: 100 to 10000 nM

COCCn1cnc2cc(C#Cc3cc(C(=O)Nc4cc(C(F)(F)F)ccn4)ccc3C)ccc21 [Compound I-4, 3-((1-(2-methoxyethyl)-1H-benzo[d]imidazol-5-yl)ethynyl)-4-methyl-N-(4-(trifluoromethyl)pyridin-2-yl)benzamide]
GI50 (BAF3 FL KIT EX11DEL): < 10 nM
GI50 [1]: 100 to 10000 nM
GI50 [2]: 50 to 100 nM
GI50 [3]: 50 to 100 nM

Cc1ccc(C(=O)Nc2cc(C(F)(F)F)ccn2)cc1C#Cc1ccc2c(c1)ncn2CCN1CCOCC1 [Compound I-5, 4-methyl-3-((1-(2-morpholinoethyl)-1H-benzo[d]imidazol-5-yl)ethynyl)-N-(4-(trifluoromethyl)pyridin-2-yl)benzamide]
GI50 (BAF3 FL KIT EX11DEL): 50 to 100 nM
GI50 [1]: 100 to 10000 nM
GI50 [2]: 100 to 10000 nM
GI50 [3]: 100 to 10000 nM

Cc1ccc(C(=O)Nc2cc(C(F)(F)F)ccn2)cc1C#Cc1ccc2c(c1)ncn2CCCN(C)C [Compound I-6, 3-((1-(3-(dimethylamino)propyl)-1H-benzo[d]imidazol-5-yl)ethynyl)-4-methyl-N-(4-(trifluoromethyl)pyridin-2-yl)benzamide]
GI50 (BAF3 FL KIT EX11DEL): 10 to 50 nM
GI50 [1]: 100 to 10000 nM
GI50 [2]: 50 to 100 nM
GI50 [3]: 100 to 10000 nM

CCn1cnc2cc(C#Cc3cc(C(=O)Nc4cc(C(F)(F)F)ccn4)ccc3C)ccc21 [Compound I-7, 3-((1-ethyl-H-benzo[d]imidazol-5-yl)ethynyl)-4-methyl-N-(4-(trifluoromethyl)pyridin-2-yl)benzamide]
GI50 (BAF3 FL KIT EX11DEL): 10 to 50 nM
GI50 [1]: 100 to 10000 nM
GI50 [2]: 50 to 100 nM
GI50 [3]: 100 to 10000 nM

Cc1ccc(C(=O)Nc2cc(C(F)(F)F)ccn2)cc1C#Cc1ccc2c(c1)ncn2C [Compound I-8, 4-methyl-3-((1-methyl-1H-benzo[d]imidazol-5-yl)ethynyl)-N-(4-(trifluoromethyl)pyridin-2-yl)benzamide]
GI50 (BAF3 FL KIT EX11DEL): 10 to 50 nM
GI50 [1]: 50 to 100 nM
GI50 [2]: 10 to 50 nM
GI50 [3]: 10 to 50 nM

Cc1ccc(C(=O)Nc2cc(C(F)(F)F)ccn2)cc1C#Cc1ccc2nc(N)[nH]c2c1 [Compound I-10, 3-((2-amino-1H-benzo[d]imidazol-6-yl)ethynyl)-4-methyl-N-(4-(trifluoromethyl)pyridin-2-yl)benzamide]
GI50 (BAF3 FL KIT EX11DEL): 10 to 50 nM
GI50 [1]: 100 to 10000 nM
GI50 [2]: 100 to 10000 nM
GI50 [3]: 100 to 10000 nM

Cc1ccc(C(=O)Nc2cc(C(F)(F)F)ccn2)cc1C#Cc1ccc2ncn(C)c2c1 [Compound I-11, 4-methyl-3-((1-methyl-1H-benzo[d]imidazol-6-yl)ethynyl)-N-(4-(trifluoromethyl)pyridin-2-yl)benzamide]
GI50 (BAF3 FL KIT EX11DEL): 100 to 10000 nM
GI50 [1]: 100 to 10000 nM
GI50 [2]: 100 to 10000 nM
GI50 [3]: 100 to 10000 nM

Cc1ccc(C(=O)Nc2cc(C(F)(F)F)ccn2)cc1C#Cc1ccc2c(c1)ncn2Cc1cccnc1 [Compound I-12, 4-methyl-3-((1-(pyridin-3-ylmethyl)-1H-benzo[d]imidazol-5-yl)ethynyl)-N-(4-(trifluoromethyl)pyridin-2-yl)benzamide]
GI50 (BAF3 FL KIT EX11DEL): 10 to 50 nM
GI50 [1]: 100 to 10000 nM
GI50 [2]: 100 to 10000 nM
GI50 [3]: 100 to 10000 nM

Cc1ccc(C(=O)Nc2cc(C(F)(F)F)ccn2)cc1C#Cc1ccc2c(c1)ncn2C1CC1 [Compound I-13, 3-((1-cyclopropyl-1H-benzo[d]imidazol-5-yl)ethynyl)-4-methyl-N-(4-(trifluoromethyl)pyridin-2-yl)benzamide]
GI50 (BAF3 FL KIT EX11DEL): 10 to 50 nM
GI50 [1]: 100 to 10000 nM
GI50 [2]: 100 to 10000 nM
GI50 [3]: 100 to 10000 nM

Cc1ccc(C(=O)Nc2cc(C(F)(F)F)ccn2)cc1C#Cc1ccc2c(c1)ncn2-c1cccc(N2CCN(C)CC2)c1 [Compound I-14, 4-methyl-3-((1-(3-(4-methylpiperazin-1-yl)phenyl)-1H-benzo[d]imidazol-5-yl)ethynyl)-N-(4-(trifluoromethyl)pyridin-2-yl)benzamide]
GI50 (BAF3 FL KIT EX11DEL): 50 to 100 nM
GI50 [1]: 100 to 10000 nM
GI50 [2]: 100 to 10000 nM
GI50 [3]: 100 to 10000 nM

Cc1ccc(C(=O)Nc2cc(C(F)(F)F)ccn2)cc1C#Cc1ccc2c(c1)ncn2-c1ccc(N2CCN(C)CC2)cc1 [Compound I-15, 4-methyl-3-((1-(4-(4-methylpiperazin-1-yl)phenyl)-1H-benzo[d]imidazol-5-yl)ethynyl)-N-(4-(trifluoromethyl)pyridin-2-yl)benzamide]
GI50 (BAF3 FL KIT EX11DEL): 50 to 100 nM
GI50 [1]: 100 to 10000 nM
GI50 [2]: 100 to 10000 nM
GI50 [3]: 100 to 10000 nM

Cc1ccc(C(=O)Nc2cc(C(F)(F)F)ccn2)cc1C#Cc1ccc2c(c1)ncn2-c1cnn(C)c1 [Compound I-17, 4-methyl-3-((1-(1-methyl-1H-pyrazol-4-yl)-1H-benzo[d]imidazol-5-yl)ethynyl)-N-(4-(trifluoromethyl)pyridin-2-yl)benzamide]
GI50 (BAF3 FL KIT EX11DEL): 10 to 50 nM
GI50 [1]: 50 to 100 nM
GI50 [2]: 10 to 50 nM
GI50 [3]: 10 to 50 nM

Cc1ccc(NC(=O)c2ccc(CN3CCN(C)CC3)c(C(F)(F)F)c2)cc1C#Cc1ccc2c(c1)ncn2C [Compound I-18, N-(4-methyl-3-((1-methyl-1H-benzo[d]imidazol-5-yl)ethynyl)phenyl)-4-((4-methylpiperazin-1-yl)methyl)-3-(trifluoromethyl)benzamide]
GI50 (BAF3 FL KIT EX11DEL): 100 to 10000 nM
GI50 [1]: 100 to 10000 nM
GI50 [2]: 100 to 10000 nM
GI50 [3]: 100 to 10000 nM

Cc1ccc(C(=O)Nc2cc(C(F)(F)F)ccn2)cc1C#Cc1ccc2c(c1)ncn2-c1cnn(C)c1 [Compound I-19, 4-methyl-3-((1-(1-methyl-1H-pyrazol-4-yl)-1H-benzo[d]imidazol-5-yl)ethynyl)-N-(4-(trifluoromethyl)pyridin-2-yl)benzamide]
GI50 (BAF3 FL KIT EX11DEL): < 10 nM
GI50 [1]: 10 to 50 nM
GI50 [2]: < 10 nM
GI50 [3]: 10 to 50 nM

Cc1ccc(C(=O)Nc2cc(C(F)(F)F)ccn2)cc1C#Cc1ccc2c(c1)ncn2C1CCN(C)CC1 [Compound I-20, 4-methyl-3-((1-(1-methylpiperidin-4-yl)-1H-benzo[d]imidazol-5-yl)ethynyl)-N-(4-(trifluoromethyl)pyridin-2-yl)benzamide]
GI50 (BAF3 FL KIT EX11DEL): 10 to 50 nM
GI50 [1]: 100 to 10000 nM
GI50 [2]: 100 to 10000 nM
GI50 [3]: 100 to 10000 nM

Cc1ccc(C(=O)Nc2cc(C(F)(F)F)ccn2)cc1C#Cc1ccc2c(c1)ncn2-c1ccccc1 [Compound I-21, 4-methyl-3-((1-phenyl-1H-benzo[d]imidazol-5-yl)ethynyl)-N-(4-(trifluoromethyl)pyridin-2-yl)benzamide]
GI50 (BAF3 FL KIT EX11DEL): 100 to 10000 nM
GI50 [1]: 100 to 10000 nM
GI50 [2]: 100 to 10000 nM
GI50 [3]: 100 to 10000 nM

Cc1ccc(C(=O)Nc2ccc(N3CCN(C)CC3)c(C(F)(F)F)c2)cc1C#Cc1ccc2c(c1)ncn2C [Compound I-22, 4-methyl-3-((1-methyl-1H-benzo[d]imidazol-5-yl)ethynyl)-N-(4-(4-methylpiperazin-1-yl)-3-(trifluoromethyl)phenyl)benzamide]
GI50 (BAF3 FL KIT EX11DEL): 100 to 10000 nM
GI50 [1]: 100 to 10000 nM
GI50 [2]: 100 to 10000 nM
GI50 [3]: 100 to 10000 nM

Cc1ccc(C(=O)Nc2cc(C(F)(F)F)ccn2)cc1C#Cc1ccc2c(c1)ncn2-c1cn(C)cn1 [Compound I-23, 4-methyl-3-((1-(1-methyl-1H-imidazol-4-yl)-1H-benzo[d]imidazol-5-yl)ethynyl)-N-(4-(trifluoromethyl)pyridin-2-yl)benzamide]
GI50 (BAF3 FL KIT EX11DEL): < 10 nM
GI50 [1]: 10 to 50 nM
GI50 [2]: < 10 nM
GI50 [3]: 10 to 50 nM

Cc1ccc(C(=O)Nc2cc(C(F)(F)F)ccn2)cc1C#Cc1ccc2c(c1)ncn2-c1cn(C)nn1 [Compound I-24, 4-methyl-3-((1-(1-methyl-1H-1,2,3-triazol-4-yl)-1H-benzo[d]imidazol-5-yl)ethynyl)-N-(4-(trifluoromethyl)pyridin-2-yl)benzamide]
GI50 (BAF3 FL KIT EX11DEL): < 10 nM
GI50 [1]: 10 to 50 nM
GI50 [2]: < 10 nM
GI50 [3]: 10 to 50 nM
